Entries after “also recorded” stand apart in the source; their conditions may differ.
Legend:
[1] = test system: CMV promoter; test: EC50 analysis for CMV promoter driven RFP inhibition (non-specific activity) by flow cytometry in RBL cells; format: cell-based, cytomegalovirus; details: 48-65 h, read-out: EC50 RFP alteration
Description: RBL cells expressing GFP under coronin 1 promoter and optionally with RBL cells expressing RFP under CMV promoter were mixed in equal numbers and incubated with the compounds at indicated concentrations for 48-65 h and analyzed by flow cytometry for alteration in coronin 1 promoter (GFP fluorescence), CMV promoter (RFP fluorescence) values. In addition, the cells were labelled with live-dead marker for assessing cell viability status by flow cytometry. Cycloheximide (CHX) serves as positive control and DMSO serves as negative controls. Effective Concentration (EC50) values for coronin 1 promoter inhibition via GFP fluorescence analysis, non-specific promoter inhibition via CMV promoter driven-RFP fluorescence analysis and cell viability via live/dead staining as a measure for toxicity in flow cytometry for compounds (10-22 and 50a-65a) are shown in Table 6 and Table 7. Based on the EC50 analysis of the inhibition of coronin 1 promoter driven GFP fluorescence the (4S,7R)-configurated eutomers were identified (Structures FIG. 9A-C). This is exemplified for compounds containing two stereocenters by eutomers 11c and 13a. […] Subsequent EC50 evaluations (Table 7) were performed with compound 13a as standard for relative potency normalized to a value of 1.00 (relative potency calculated as [EC50 GFP inhibition 13a]/[EC50 GFP inhibition compound of interest]).

[2] = test system: RBL cells; test: Cell viability by live-dead staining (cytotoxicity), flow cytometry; format: cell-based, Rat; details: Rattus norvegicus, RBL, cell viability via live/dead staining, 48-65 h, read-out: EC50 Toxicity
Method in brief: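 RBL cells with coronin 1 promoter-GFP, mixed 1:1 with CMV promoter-RFP RBL cells, exposed to compound 48-65 h. Flow cytometry read RFP fluorescence for non-specific promoter inhibition and live-dead staining for cytotoxicity. EC50 values derived; cycloheximide positive control, DMSO negative.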

[3] = test system: coronin 1 mRNA; test: Quantitative PCR of coronin 1 mRNA in RBL cells; format: cell-based, Rat; details: 3.5 μg/ml, 7 days
Description: The plasmids were independently transfected into immune cells (Rat basophil Leukemia, RBL cells) to generate green and red fluorescent RBL cells that were subsequently enriched by means of flow cytometry. These cells were then mixed in equal ratio (1:1) and incubated in a 96 well plate at 100,000 cells/well in a volume of 200 μl of phenol red free RPMI supplemented with 8% fetal calf serum, L-glutamate and antibiotics (penicillin, streptomycin) and various compounds (3 and 5 μg/ml concentrations) from available chemical libraries. At defined time points (8 h, 24 h and 48 h), the GFP and RFP fluorescence was measured using a 96 well microplate reader (Synergy, BioTek Instruments). […] Selected compounds show different levels of modulation of coronin 1 promoter driven GFP and CMV promoter driven RFP fluorescence. GFP and RFP fluorescence were analyzed with a microplate reader upon incubation with the top coronin 1 promoter inhibiting compounds. […] Cells were imaged using a fluorescence microscope to validate fluorescence inhibition (FIG. 3A) and as well assess morphology and viability (in addition to GFP down regulation confirmation). In addition, quantitative Polymerase Chain Reaction (qPCR) for coronin 1 mRNA transcripts reveal reduction with compound 11 (FIG. 3B). […]

[4] = test system: coronin 1; test: Western blotting of coronin 1 protein levels in RBL cells; format: cell-based, Rat; details: RBL cell lines, chemiluminescence imager
Description: buffer with 0.2% SDS containing protease and phosphatase inhibitors (Roche) at 4° C., followed by protein determination (BCA, Pierce) and SDS-PAGE with equal protein amounts transferred onto nitrocellulose and probed using antibodies against the indicated proteins (actin and coronin 1) followed by HRP-labeled secondary antibodies and developed using an enhanced chemi-luminescence imager (Fuji) (FIG. 3C).

[5] = test system: RBL cells; test: In vitro toxicity, Alamar blue assay; format: cell-based, Rat
Description: In vitro cytotoxicity tests were performed using Alamar blue (Invitrogen, USA) following manufacturers protocol. In brief, RBL cells pretreated with coronin 1 expression inhibitor or vehicle controls were reseeded and cultured in a 96-well plate at a concentration of 1×10^4 cells/ml of culture media. Alamar blue was added to the wells and further incubated at 37° C. for 4 h. The absorbance was measured at 600 nm using a microplate reader (Synergy, BioTek Instruments). DMSO and cycloheximide served as the vehicle and positive control respectively (FIG. 5A).

[6] = test system: RBL cells; test: In vitro toxicity, MTT assay; format: cell-based, Rat
Description: MTT assay was performed with 3-(4,5-dimethylthiazol-2-yl)-2,5-diphenyltetra-zolium bromide (MTT, Cayman chemicals) using the manufacturers protocol. In brief, RBL cells pretreated with coronin 1 expression inhibitor or vehicle controls were reseeded and cultured in a 96-well plate at a concentration of […] cells/ml of culture media, 10 μL of MTT was added and incubated for 4 h at 37° C. At the end, culture supernatant was removed and the formazan crystals were dissolved with 100 μl of crystal dissolving solution and the absorbance measured at 570 nm using a plate reader (Synergy) (FIG. 5B).

[7] = In vivo toxicity: hematological parameters (ADVIA) and body weight; details: 150 mg/kg/body weight, BD, IP, six-day administration
Description: Coronin 1 expression inhibitor (compound 11) was initially dissolved in DMSO at 100 mg/ml concentration. In parallel, a 50:50 solution of miglyol 812 and kolliphor EL (M+K) was prepared. Coronin 1 expression inhibitor: M+K was mixed at a ratio of 30:70 and vortexed for 5 minutes to make a homogenous suspension such that a final concentration of 30 mg/ml was obtained. 100 μl/mouse was subsequently administered either intraperitoneally or subcutaneously using an insulin syringe. The mice used for the study were separated into age and sex matched cohorts, weighed prior to start of the study and regularly monitored for body weight, behavioural changes, fur changes, faecal consistency and urine colour. […]

[8] = test system: human PBMCs (CD4 and CD8 T cells); test: Proinflammatory cytokine production in human PBMCs after CD3/CD28 stimulation, flow cytometry; format: cell-based; details: 10 μg/ml, 4.5 days, CD3 and CD28 antibodies
Description: Heparinized or EDTA treated blood or buffy coat from healthy volunteers were enriched for monocytes using the standard Histopaque 1.077 gradient centrifugation methodology. Post enrichment, the monocyte fraction was washed extensively with plain RPMI and subsequently counted and seeded in 96 well plate at a density of 0.2 million cells/well in a volume of 200 μl RPMI-1640 (Sigma) containing 1× penicillin and streptomycin (Gibco), 2 mM L-glutamine (Gibco), 10% heat inactivated FCS (PAA) and heparin 50 units/ml along with the vehicle (DMSO) or coronin 1 inhibitor at indicated concentrations. Cells were incubated in a 37° C. humidified incubator with a 5% CO2 for five days with the expression inhibitor and vehicle replenished in between at 48 hours post seeding by replacing 50% of the media. Subsequently, the cells were assessed for coronin 1 down regulation by Western blotting (FIG. 8A) and in parallel stimulated with anti-CD3 (2 μg/ml) and anti-CD28 (10 μg/ml) antibodies overnight and treated with brefeldin A for a duration of 4 h and subjected to surface staining (for CD3, CD4, CD8 and CD19) along with live-dead marker and fixed with 4% formaldehyde, permeabilized with 0.1% saponin and subjected to intracellular staining for interleukin-2 (FIG. 8B,C).

In the case of `COC(=O)C1=C(C)NC2=C(C(=O)CC(c3ccccc3OC)C2)C1c1cccc(O)c1` (centres unmarked) [Comp. 11, methyl-4-(3-hydroxyphenyl)-7-(2-methoxyphenyl)-2-methyl-5-oxo-1,4,5,6,7,8-hexahydro-3-quinolinecarboxylate], the EC50 [1] is reported as greater than 9 µM, the EC50 [2] is reported as greater than 9 µM and the “coronin 1 mRNA transcripts (qPCR)” value [3] is reported as “reduction in coronin 1 transcripts”. The “coronin 1 depletion (Western blotting, protein level)” value [4] was roughly 80%, the “in vitro toxicity by Alamar blue assay” value [5] was “minimal toxicity” and the “in vitro toxicity by MTT assay” value [6] was “minimal toxicity”. The “in vivo toxicity: hematological parameters (RBC, WBC, platelet counts, hemoglobin), body weight” value [7] was “did not reveal any potential toxicity; also recorded: good safety and tolerability” and the “production of interleukin-2 (IL-2) in CD4 and CD8 T cells post T cell receptor stimulation” value [8] was “attenuates immune responses”.

From patent publication US20260102387A1, “IMMUNOSUPPRESSIVE COMPOUNDS” (UNIVERSITÄT BASEL, priority 2022, published 2026)
